Consider 1 substance from patent US5527555A, “Brazzein sweetener” (Wisconsin Alumni Research Foundation, priority 1994, dated 1996).

Series [1] is described as follows: sweetness by tasting, compared with sucrose solution. It counts as in vivo.
The nature of series [2]: Thermostability assay (incubation at 98° C., sweetness then tasted). It counts as physicochemical. How it is done: A thermostability assay was done (2 hours at 98° C.) at a concentration of 0.5 mg/ml Brazzein at the following different pH levels: 2 (Glycine-HCL buffer); 4 (Acetate buffer); 6 (Phosphate buffer); and 8 (Tris-HCL buffer). All of the buffers were in concentration of 50 mM. After the incubations, the samples were cooled down to room temperature and the sweetness of the samples was tasted with a comparison to the original protein solution.

“Brazzein: sweet protein isolated from Pentadiplandra brazzeana Baillon, about 6,473 Daltons, amino acid sequence SEQ ID NO:4 (EDKCKKVYENYPVSKCQLANQCNYDCKLDKHARSGECFYDEKRNLQCICDYCEY)”: in series [1] (2% solution compared with a 2% sucrose solution), the “sweetness relative to sucrose” value is “about 2,000 times”. Moreover, in series [1] (taste, duration of sweetness), the temporal sweetness response result is recorded as “relatively long lasting sweetness response”. In addition, in series [2] (2 hours at 98° C., 0.5 mg/ml, pH 2, 4, 6 and 8 (50 mM buffers), sweetness tasted against original protein solution), the thermostability result is “excellent thermostability”. Further, the “sweetness after heat incubation” value in series [2] (two hours of incubation at 98° C.) is “still tasted very sweet”.
